One data set has as its system Jurkat cells. Kind of data set: Cell proliferation assay, growth inhibition by Alamar Blue. It counts as cell-based. The settings on record: Homo sapiens, 72 h, Jurkat cells treated with compound for 3 days. How it is done:
Cell lines were obtained from DSMZ (Braunschweig, Germany) or ATCC (Manassas, Va.). Cells were grown in RPMI 1640 with 10% fetal bovine serum in a 5% CO2/air incubator at 37° C. Thapsigargin and BAPTA-AM were from Calbiochem (San Diego, Calif.). 3-((dimethylamino)methyl)-N-(2-(4-(hydroxycarbamoyl)phenoxy)ethyl)benzofuran-2-carboxamide is a broad-spectrum HDAC inhibitor which was synthesized as previously described. Other analogs with varying degrees of specificity towards the HDAC isoforms were synthesized as described herein.
Tumor cell lines and human umbilical vein endothelial cells (HUVEC) were cultured for at least two doubling times, and growth was monitored at the end of compound exposure using an Alamar Blue™ (Biosource, Camarillo, Calif.) fluorometric cell proliferation assay as recommended by the manufacturer. Compounds were assayed in triplicate wells in 96-well plates. The concentration required to inhibit cell growth by 50% (GI50) and 95% confidence intervals were estimated from nonlinear regression using a 4-parameter logistic equation. The effect of HDAC8 selective inhibitor compounds on cell proliferation in Jurkat cells was measured. Apoptosis was measured by Annexin-V flow cytommetry. Growth inhibition was measured by Alamar Blue assay. Cells were treated with compound for 3 days.
A general note: The colour change of resazurin is a common sign of viable cells or microbes.

Data set [1] is described as follows: Pharmacokinetic analysis in male rats, oral gavage. It counts as in vivo. The settings on record: CD IGS (Sprague-Dawley derived), rat, plasma, orally at 3 mg/kg, compounds administered in combination. How it is done:
This study, performed in male rats with test compounds (Compound 303 and Compound 316), was designed to provide preliminary information on their pharmacokinetics. The test compounds were administered in combination by oral gavage.
The specifications for rats used on this study are as follows: • Strain: CD® IGS rats (Sprague-Dawley derived) • Source: Charles River Laboratories • Surgical modification for oral dosing: One portal vein cannula and one jugular vein cannula • Body weight range at dosing 350 to 375 g
The rats were acclimatized to laboratory conditions for at least 24 hours before dosing. The evening before dosing, food was withheld from the rats and was returned immediately following the 3-hour blood collection time point. Water was provided ad libitum. The rats were housed individually in translucent polycarbonate cages.
Test compounds were prepared as 3.0 mg/ml solutions (1% MC/0.4% Cr EL in WFI).
Rats were administered a single dose of test compound in combination by oral gavage. Dose volumes were adjusted based on body weight data collected immediately prior to dosing.
The dose volume was 1 ml/kg and the nominal dosage was 3 mg/kg.
Blood samples were collected at 5 minutes, 20 minutes, 1 hour, 3 hours, 6 hours, 9 hours, and 24 hours post-dosing from orally dosed rats. The samples were collected into plasma separator Microtainer tubes with anticoagulant (lithium heparin). Plasma samples were prepared by centrifugation (5 min at 5000×g), and at least 100 μL were transferred to storage tubes and frozen on dry ice. Samples were maintained at approximately −75 C until prepared for analysis.
Plasma samples were thawed and 75 uL aliquots were transferred to centrifuge tubes to which 10 μL aliquots of internal standard solution (0.5 μg/mL) were added. The samples were not diluted with blank plasma prior to further processing. Soluble proteins were precipitated by the addition of 300 μL of methanol, followed by centrifugation (20 min at 16,000×g). The samples were evaporated to dryness and reconstituted in 100 μL of water containing 0.2% formic acid and 10% methanol. All samples were loaded onto an autosampler maintained at 6° C. and evaluated for concentrations of test compound using LC-MS/MS. lasma concentration data were evaluated using the computer program WinNonlin (Professional Edition, Pharsight Corporation, version 5.01). […]
Pan HDAC inhibitor 3-((dimethylamino)methyl)-N-(2-(4-(hydroxycarbamoyl)phenoxy)ethyl)benzofuran-2-carboxamide was added to the cassette to serve as a standard since the pharmacokinetics of this compound have been determined previously in rats. The UC's determined for rats administered Compound 303 and Compound 316 orally at 3 mg/kg were 1.42, and 5.36 μg·h/mL, respectively. […]

Another data set addresses HDAC1 (Homo sapiens, UniProt Q13547). Kind of data set: Histone deacetylase activity, continuous trypsin-coupled assay. It counts as biochemical. The settings on record: 15 minutes preincubation; substrate acetyl-Gly-Ala-(N-acetyl-Lys)-AMC. How it is done: (§1) HDAC activity was measured using a continuous trypsin-coupled assay that has been described in detail previously (US 20070281934; Schultz et. al., Biochemistry, 43 (34), 11083-11091, 2004; Kim et al. (2006), Methods Mol. Biol., 325:273-283). For inhibitor characterization, measurements were performed in a reaction volume of 100 μL using 96-well assay plates in a fluorescence plate reader. For each isozyme, the HDAC protein in reaction buffer (50 mM HEPES, 100 mM KCl, 0.001% Tween-20, 5% DMSO, pH 7.4, supplemented with bovine serum albumin at concentrations of 0-0.05%, was mixed with inhibitor at various concentrations and allowed to incubate for 15 minutes. Trypsin was added to a final concentration of 50 nM, and acetyl-Gly-Ala-(N-acetyl-Lys)-AMC was added to a final concentration of 25-100 μM to initiate the reaction. After a 30 minute lag time, the fluorescence was measured over a 30 minute time frame using an excitation wavelength of 355 nm and a detection wavelength of 460 nm. The increase in fluorescence with time was used as the measure of the reaction rate. Inhibition constants Ki(app) were obtained using the program BatchKi (Biokin, Pullman, Wash.).

The next data set has as its target T1, HDAC10 (Homo sapiens, UniProt Q969S8).
T1 sequence (Q969S8 1-669): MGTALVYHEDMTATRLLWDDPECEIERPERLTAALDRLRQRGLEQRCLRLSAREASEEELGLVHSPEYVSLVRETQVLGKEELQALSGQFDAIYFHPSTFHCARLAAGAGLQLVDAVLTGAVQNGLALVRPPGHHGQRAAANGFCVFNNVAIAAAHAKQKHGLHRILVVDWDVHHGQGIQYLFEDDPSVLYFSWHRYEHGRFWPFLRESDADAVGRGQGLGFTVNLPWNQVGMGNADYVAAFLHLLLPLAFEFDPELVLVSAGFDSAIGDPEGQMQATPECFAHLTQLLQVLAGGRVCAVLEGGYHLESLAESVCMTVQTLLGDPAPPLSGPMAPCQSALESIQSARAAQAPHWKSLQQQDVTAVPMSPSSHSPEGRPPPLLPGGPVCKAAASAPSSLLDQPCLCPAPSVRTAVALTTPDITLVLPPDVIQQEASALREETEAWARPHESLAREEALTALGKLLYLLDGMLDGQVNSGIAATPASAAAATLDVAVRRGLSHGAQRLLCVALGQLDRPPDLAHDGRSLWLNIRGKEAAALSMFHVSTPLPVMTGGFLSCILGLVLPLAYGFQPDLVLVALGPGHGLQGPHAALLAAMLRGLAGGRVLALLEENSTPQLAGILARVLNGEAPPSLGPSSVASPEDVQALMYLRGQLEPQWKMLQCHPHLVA
The description is as above. The data set is classed as biochemical. The settings on record: 15 minutes preincubation; substrate acetyl-Gly-Ala-(N-acetyl-Lys)-AMC. How it is done:
as §1

Another data set has as its target HDAC2 (Homo sapiens, UniProt Q92769). The description is as above. The settings on record: 15 minutes preincubation; substrate acetyl-Gly-Ala-(N-acetyl-Lys)-AMC. The data set is classed as biochemical. How it is done:
as §1

In a further data set the target is HDAC3 (Homo sapiens, UniProt O15379). The description is as above. It counts as biochemical. The settings on record: 15 minutes preincubation; substrate acetyl-Gly-Ala-(N-acetyl-Lys)-AMC. How it is done: as §1
Sequence of HDAC3 (O15379 whole entry, species assumed): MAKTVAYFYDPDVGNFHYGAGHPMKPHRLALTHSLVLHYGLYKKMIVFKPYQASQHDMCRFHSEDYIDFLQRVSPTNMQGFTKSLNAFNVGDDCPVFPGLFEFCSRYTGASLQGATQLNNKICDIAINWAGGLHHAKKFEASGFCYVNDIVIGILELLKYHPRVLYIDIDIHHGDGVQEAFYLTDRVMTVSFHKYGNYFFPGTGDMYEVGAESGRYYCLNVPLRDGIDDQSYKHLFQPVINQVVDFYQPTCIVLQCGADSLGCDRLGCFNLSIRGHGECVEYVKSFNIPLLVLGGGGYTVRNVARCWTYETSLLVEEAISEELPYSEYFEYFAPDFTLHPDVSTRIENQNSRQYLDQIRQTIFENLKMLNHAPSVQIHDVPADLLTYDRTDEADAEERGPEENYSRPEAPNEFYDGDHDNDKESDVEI
Sequence of HDAC3 (Q9Y618 395-489 partner limits assumed, species assumed): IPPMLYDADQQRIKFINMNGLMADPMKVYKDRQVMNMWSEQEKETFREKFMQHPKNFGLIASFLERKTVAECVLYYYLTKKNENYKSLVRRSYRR
The target in another data set is T2, HDAC6 (Homo sapiens, UniProt Q9UBN7).
T2 sequence (Q9UBN7 1-1215): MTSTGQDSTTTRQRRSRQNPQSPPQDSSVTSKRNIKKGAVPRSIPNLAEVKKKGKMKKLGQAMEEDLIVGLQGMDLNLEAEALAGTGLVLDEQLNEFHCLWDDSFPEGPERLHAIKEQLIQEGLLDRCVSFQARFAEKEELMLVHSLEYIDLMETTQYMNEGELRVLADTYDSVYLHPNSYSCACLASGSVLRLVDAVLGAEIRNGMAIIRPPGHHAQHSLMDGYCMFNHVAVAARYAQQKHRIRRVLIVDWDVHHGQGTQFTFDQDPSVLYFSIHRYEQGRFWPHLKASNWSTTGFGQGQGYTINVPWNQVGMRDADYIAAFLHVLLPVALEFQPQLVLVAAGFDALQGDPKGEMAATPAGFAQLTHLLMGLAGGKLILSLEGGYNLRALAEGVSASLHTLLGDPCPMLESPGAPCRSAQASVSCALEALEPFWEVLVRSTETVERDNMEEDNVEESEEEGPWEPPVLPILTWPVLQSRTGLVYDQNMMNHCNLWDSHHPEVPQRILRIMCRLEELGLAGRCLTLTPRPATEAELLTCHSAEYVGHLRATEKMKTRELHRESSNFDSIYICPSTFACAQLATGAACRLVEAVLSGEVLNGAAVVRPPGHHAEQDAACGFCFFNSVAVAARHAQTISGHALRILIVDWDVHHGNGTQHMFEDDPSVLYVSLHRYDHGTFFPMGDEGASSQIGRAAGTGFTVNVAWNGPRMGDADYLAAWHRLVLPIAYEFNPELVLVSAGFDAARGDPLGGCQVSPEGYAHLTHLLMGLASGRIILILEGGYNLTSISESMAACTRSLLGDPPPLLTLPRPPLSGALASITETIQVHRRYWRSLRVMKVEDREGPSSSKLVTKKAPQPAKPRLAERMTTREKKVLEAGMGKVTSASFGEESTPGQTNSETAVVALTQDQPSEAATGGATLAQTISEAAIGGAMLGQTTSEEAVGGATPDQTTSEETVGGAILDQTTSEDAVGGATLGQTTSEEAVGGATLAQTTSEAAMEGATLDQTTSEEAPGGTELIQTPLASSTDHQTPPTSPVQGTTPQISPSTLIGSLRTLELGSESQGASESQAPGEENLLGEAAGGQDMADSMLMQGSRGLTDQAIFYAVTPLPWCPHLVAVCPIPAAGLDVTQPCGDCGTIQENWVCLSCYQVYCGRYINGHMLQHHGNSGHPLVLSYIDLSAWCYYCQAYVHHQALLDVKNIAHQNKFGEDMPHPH
Described as above. It counts as biochemical. The settings on record: 15 minutes preincubation; substrate acetyl-Gly-Ala-(N-acetyl-Lys)-AMC. The protocol:
as §1

For another data set, the target named is T3, HDAC8 (Homo sapiens, UniProt Q9BY41).
T3 sequence (Q9BY41 1-377): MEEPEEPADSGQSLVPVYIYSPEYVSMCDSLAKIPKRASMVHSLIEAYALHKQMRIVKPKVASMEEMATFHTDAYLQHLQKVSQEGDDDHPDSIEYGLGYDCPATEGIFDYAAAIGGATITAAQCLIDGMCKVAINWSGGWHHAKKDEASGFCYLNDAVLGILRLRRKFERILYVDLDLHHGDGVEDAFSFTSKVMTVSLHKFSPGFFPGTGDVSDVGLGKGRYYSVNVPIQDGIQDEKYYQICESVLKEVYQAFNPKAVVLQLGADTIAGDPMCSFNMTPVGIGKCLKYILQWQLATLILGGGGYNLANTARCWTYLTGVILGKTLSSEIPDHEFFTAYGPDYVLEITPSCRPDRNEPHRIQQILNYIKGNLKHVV
The description is as above. The settings on record: 15 minutes preincubation; substrate acetyl-Gly-Ala-(N-acetyl-Lys)-AMC. It counts as biochemical. How it is done:
as §1

Sequence of HDAC2 (Q92769 whole entry, species assumed): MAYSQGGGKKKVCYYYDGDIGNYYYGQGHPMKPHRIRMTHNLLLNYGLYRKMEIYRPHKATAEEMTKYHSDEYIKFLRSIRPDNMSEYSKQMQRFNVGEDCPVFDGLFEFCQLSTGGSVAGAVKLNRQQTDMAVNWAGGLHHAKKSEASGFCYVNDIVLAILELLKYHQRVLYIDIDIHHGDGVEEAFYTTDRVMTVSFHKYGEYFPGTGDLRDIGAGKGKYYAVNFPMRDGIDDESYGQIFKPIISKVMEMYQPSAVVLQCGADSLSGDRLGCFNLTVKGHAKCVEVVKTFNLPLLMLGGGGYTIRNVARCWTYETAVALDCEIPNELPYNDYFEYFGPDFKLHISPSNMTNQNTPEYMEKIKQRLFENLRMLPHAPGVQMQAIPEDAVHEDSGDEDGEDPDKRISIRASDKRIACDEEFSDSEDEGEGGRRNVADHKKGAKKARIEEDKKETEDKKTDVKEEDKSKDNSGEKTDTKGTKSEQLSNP
Sequence of HDAC1 (Q13547 whole entry, species assumed): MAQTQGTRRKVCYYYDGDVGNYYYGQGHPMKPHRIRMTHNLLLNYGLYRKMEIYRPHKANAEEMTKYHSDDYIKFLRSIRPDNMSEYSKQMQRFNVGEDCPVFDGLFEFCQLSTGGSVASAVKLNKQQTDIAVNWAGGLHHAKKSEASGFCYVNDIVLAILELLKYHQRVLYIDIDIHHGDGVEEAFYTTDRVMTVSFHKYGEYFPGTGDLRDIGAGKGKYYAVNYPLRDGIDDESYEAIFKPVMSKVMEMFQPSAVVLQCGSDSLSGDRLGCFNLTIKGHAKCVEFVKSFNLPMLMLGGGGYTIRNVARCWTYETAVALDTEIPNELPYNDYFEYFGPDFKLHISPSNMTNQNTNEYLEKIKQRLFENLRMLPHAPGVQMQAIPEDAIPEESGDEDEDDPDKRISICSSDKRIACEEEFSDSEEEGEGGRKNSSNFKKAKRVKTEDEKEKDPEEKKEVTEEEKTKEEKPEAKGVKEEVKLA

What is called GI50 is the concentration that inhibits growth by half. In general, AUC refers to concentration integrated over time. What is called Cmax is the peak of the concentration-time curve. On to `O=C(NO)c1ccc2ccn(CCCc3ccccc3)c2c1` [Compound 303, N-hydroxy-1-(3-phenyl-propyl)-1H-indole-6-carboxamide], for which the concentration for 50% growth inhibition (GI50) in the data set with Jurkat cells came to 3.5 µM. In data set [1], the AUC is 1420 ng·h/mL and the peak concentration (Cmax) was determined as 310 ng/mL.
One may read the IC50 as the concentration at which inhibition is half-maximal. Low values mean higher potency, high ones lower potency. Regarding `CN(C)Cc1cccc(OCCn2ccc3ccc(C(=O)NO)cc32)c1` [Compound 324, N-hydroxy-1-(2-(3-(dimethylaminomethyl)phenoxy)ethyl)-1H-indole-6-carboxamide], the concentration for half-maximal inhibition (IC50) is above 10 µM against HDAC1; above 10 µM on HDAC10; above 10 µM against HDAC2; above 10 µM on HDAC3; 1 to 10 µM on HDAC6; below 1 µM on HDAC8. The GI50 in the data set on Jurkat cells was found to be 7.4 µM.
`CN(C)Cc1ccc(OCCn2ccc3ccc(C(=O)NO)cc32)cc1` [Compound 325, N-hydroxy-1-(2-(4-(dimethylaminomethyl)phenoxy)ethyl)-1H-indole-6-carboxamide]: the IC50 against HDAC1 was above 10 µM; against HDAC10, above 10 µM; against HDAC2 it was above 10 µM; at HDAC3, above 10 µM; at HDAC6, 1 to 10 µM; against HDAC8, below 1 µM. In the data set with Jurkat cells, the GI50 came out at 13.4 µM.
With `O=C(NO)c1ccc2ccn(CCOc3ccccc3CN3CCOCC3)c2c1` [Compound 326, N-hydroxy-1-(2-(2-(morpholin-4-ylmethyl)phenoxy)ethyl)-1H-indole-6-carboxamide], the IC50 was above 10 µM against HDAC1, above 10 µM against HDAC10, above 10 µM against HDAC6 and below 1 µM against HDAC8.
Take `O=C(NO)c1ccc2ccn(CCOc3cccc(CN4CCOCC4)c3)c2c1` [Compound 327, N-hydroxy-1-(2-(3-(morpholin-4-ylmethyl)phenoxy)ethyl)-1H-indole-6-carboxamide]: the IC50 is above 10 µM on HDAC1; above 10 µM against HDAC10; above 10 µM on HDAC2; above 10 µM against HDAC3; 1 to 10 µM against HDAC6; below 1 µM against HDAC8. Further, the GI50 with Jurkat cells amounted to 4.95 µM.
As for `O=C(Cn1ccc2ccc(C(=O)NO)cc21)Nc1ccccc1` [Compound 329, N-hydroxy-1-(2-oxo-2-(phenylamino)ethyl)-1H-indole-6-carboxamide], the IC50 was above 10 µM on HDAC1; above 10 µM against HDAC10; above 10 µM against HDAC2; above 10 µM against HDAC3; above 10 µM against HDAC6; below 1 µM against HDAC8. In addition, the GI50 with Jurkat cells turned out to be 20.7 µM.

Source of the values: US8466193B2, “Selective inhibitors of histone deacetylase” (Pharmacyclics, Inc., priority 2008, dated 2013).
